This experiment has as its system CHO-XBP1 cells, IRE1-XBP1 luciferase reporter luminescence. The experiment is described as follows: IRE1-XBP1 adaptive UPR arm activators, SAR follow-up, CHO-XBP1 cells, luminescence (AID 540311).

Results on eight molecules are retold here after PubChem BioAssay AID540311 (Sanford-Burnham Center for Chemical Genomics, 2011).

Molecules are shown by their SMILES. Active and inactive are the calls of the source.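 Rule for the calls: active = mean EC50 at or below 20 µM; inactive = the rest.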

Take `Cc1ccnc(Nc2ncccn2)n1`: the EC50 is > 80 µM (inactive).

In the case of `Cc1nc(Nc2nc(-c3ccccc3)cc(=O)[nH]2)nc2ccccc12`, the EC50 is 12.8 µM.

As to `Cc1ccnc(Nc2nc(-c3ccccc3)cc(=O)[nH]2)n1`, the EC50 is > 80 µM (inactive).

`Cc1cc(-c2ccccc2)nc(Nc2nc(C)c3ccccc3n2)n1`: the EC50 is > 80 µM (inactive).

Consider `Cc1nc(Nc2ncccn2)nc2ccccc12`, for which the EC50 was > 80 µM (inactive).

With `Cc1cc(=O)[nH]c(Nc2nc(C)c3ccccc3n2)n1`, the EC50 was > 80 µM (inactive).

`Cc1nc(Nc2nccc(-c3ccccc3)n2)nc2ccccc12`: the EC50 is > 80 µM (inactive).

In the case of `COc1cc(-c2ccccc2)nc(Nc2nc(C)c3ccccc3n2)n1`, the EC50 was > 80 µM (inactive).

The EC50 is the concentration at which the effect is half-maximal.
